Measurements: patent US20240148673A1 (priority 2016, published 2024)
Read-outs that look alike come from different tables or passages of the source.

Columns and labels:
[1] = in vivo, po, 6 mg
Protocol: The study compared various dose routes: sublingual (SL), per oral tablet (PO), subcutaneous (SC) and intravenous (IV). […] An Oral Irritation assessment was performed (SL film group): Predose (0) and 24 hr postdose by Draize scoring.

[2] = PBS (pH 7.4), n=6; cited from earlier work

SMILES: CNC[C@H](O)c1ccc(OC(=O)C(C)(C)C)c(OC(=O)C(C)(C)C)c1 (racemic) [dipivefrin]
- DIPI Tmax [1]: 0 h

SMILES: CNC[C@H](O)c1ccc(O)c(O)c1 [Epinephrine Bitartrate]
- average flux (30 min, 16 mg/mL): 0 μg/cm2*min
- average flux (45 min, 16 mg/mL): 0.2604 μg/cm2*min
- average flux (60 min, 16 mg/mL): 0.3125 μg/cm2*min
- average flux (120 min, 16 mg/mL): 0.6727 μg/cm2*min
- average flux (180 min, 16 mg/mL): 1.076 μg/cm2*min
- average flux (240 min, 16 mg/mL): 1.029 μg/cm2*min
- average flux (300 min, 16 mg/mL): 1.25 μg/cm2*min
- Average Steady State flux (360 min, 4 mg/mL): 0.167 ug/cm2*min
- Average Steady State flux (360 min, 8 mg/mL): 0.466 ug/cm2*min
- Average Steady State flux (360 min, 16 mg/mL): 1.317 ug/cm2*min
- average flux (360 min, 16 mg/mL): 1.385 μg/cm2*min
- Average Steady State flux (360 min, 100 mg/mL): 2.942 ug/cm2*min

SMILES: CC(C)NCC(O)COc1cccc2ccccc12 (centres unmarked) [PP]
- C0 of saturated solution [2]: 588005 ± 5852 µg/mL
